Results as given in patent US9371336B2, “Compounds for treating spinal muscular atrophy” (PTC Therapeutics Inc., priority 2012, dated 2016).

Assays:
[1] = system: SMN2 minigene mRNA (SMN2-A minigene construct); assay: SMN2 minigene mRNA splicing RT-qPCR assay in cultured cells; assay type: cell-based, human; settings: Homo sapiens, HEK293-H; HEK293H cells stably transfected with SMN2-A minigene, 24 hours, 7-point concentration data; concentration giving 1.5-fold SMN2 full length mRNA relative to vehicle-treated cells; read-out: EC1.5x for production of full length SMN2 mRNA
How it was run: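 Full-length SMN2 minigene mRNA, measured by exon 7/luciferase-specific RT-qPCR that excludes endogenous SMN1/SMN2, was normalized to GAPDH and expressed relative to vehicle-treated cells via modified ΔΔCt. Stably transfected HEK293H cells received compound (7-point, 3.16-fold series, duplicates) for 24 h at 37 °C.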

Smn protein = Smn protein assay (HTRF) in cultured cells (SMA patient fibroblasts GM03813); assay type: cell-based, human; settings: 48 hours; for EC1.5x for Smn protein expression: SMA patient fibroblast cells (GM03813), HTRF, 7-point concentration data, concentration producing 1.5 times Smn protein vs DMSO vehicle control; for maximum fold (Fold) increase of Smn protein: SMA patient fibroblast cells, 7-point concentration curve, relative to vehicle control
How it was run: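 SMA patient fibroblasts (GM03813) were treated 48 h at 37° C with a 7-point, 3.16-fold compound series in triplicate, then lysed in RIPA. Smn was read by HTRF (anti-SMN d2/kryptate, 665/620 nm ratio). ΔF versus blank was divided by vehicle ΔF to give fold Smn increase.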

Compound	melting point	EC (1.5-fold) [1]	EC1.5x for Smn protein expression (Smn protein)	maximum fold (Fold) increase of Smn protein (Smn protein)
CN1CCN(c2ccc3cc(-c4cn5cccc(F)c5n4)c(=O)oc3n2)CC1 [Cpd 110, 3-(8-fluoroimidazo[1,2-a]pyridin-2-yl)-7-(4-methylpiperazin-1-yl)-2H-pyrano[2,3-b]pyridin-2-one]	258 to 262 °C	≤ 0.1 µM	**** (an EC1.5×≦0.3 μM is indicated by four stars (****))	**** (a fold increase between >1.5 and ≦1.65 is indicated by four stars (****))
CN1CCN(c2ccc3cc(-c4cn5cccc(Cl)c5n4)c(=O)oc3n2)CC1 [Cpd 111, 3-(8-chloroimidazo[1,2-a]pyridin-2-yl)-7-(4-methylpiperazin-1-yl)-2H-pyrano[2,3-b]pyridin-2-one]	256 to 259 °C	≤ 0.1 µM	**** (an EC1.5×≦0.3 μM is indicated by four stars (****))	*** (a fold increase between >1.35 and ≦1.5 is indicated by three stars (***))
Cc1cc(F)c2nc(-c3cc4ccc(N5CCCN(C)CC5)nc4oc3=O)cn2c1 [Cpd 113, 3-(8-fluoro-6-methylimidazo[1,2-a]pyridin-2-yl)-7-(4-methyl-1,4-diazepan-1-yl)-2H-pyrano[2,3-b]pyridin-2-one]	269 to 273 °C	≤ 0.1 µM	*** (an EC1.5× between >0.3 μM and ≦1 μM is indicated by three stars (***))	**** (a fold increase between >1.5 and ≦1.65 is indicated by four stars (****))
CN1CCCN(c2ccc3cc(-c4cn5ccsc5n4)c(=O)oc3n2)CC1 [Cpd 114, 3-(imidazo[2,1-b][1,3]thiazol-6-yl)-7-(4-methyl-1,4-diazepan-1-yl)-2H-pyrano[2,3-b]pyridin-2-one]	224 to 226 °C	≤ 0.1 µM	*** (an EC1.5× between >0.3 μM and ≦1 μM is indicated by three stars (***))	**** (a fold increase between >1.5 and ≦1.65 is indicated by four stars (****))
Cc1ccn2cc(-c3cc4ccc(N5CCCN(C)CC5)nc4oc3=O)nc2c1 [Cpd 115, 7-(4-methyl-1,4-diazepan-1-yl)-3-(7-methylimidazo[1,2-a]pyridin-2-yl)-2H-pyrano[2,3-b]pyridin-2-one]	241 to 243 °C	≤ 0.1 µM		*** (a fold increase between >1.35 and ≦1.5 is indicated by three stars (***))
Cc1ccc2nc(-c3cc4ccc(N5CCCN(C)CC5)nc4oc3=O)cn2c1 [Cpd 116, 7-(4-methyl-1,4-diazepan-1-yl)-3-(6-methylimidazo[1,2-a]pyridin-2-yl)-2H-pyrano[2,3-b]pyridin-2-one]	233 to 236 °C	≤ 0.1 µM	*** (an EC1.5× between >0.3 μM and ≦1 μM is indicated by three stars (***))	*** (a fold increase between >1.35 and ≦1.5 is indicated by three stars (***))
Cc1cc(F)c2nc(-c3cc4ccc(N5C[C@H](C)NC[C@H]5C)nc4oc3=O)cn2c1 [Cpd 122, 7-[(2R,5S)-2,5-dimethylpiperazin-1-yl]-3-(8-fluoro-6-methylimidazo[1,2-a]pyridin-2-yl)-2H-pyrano[2,3-b]pyridin-2-one]	195 to 198 °C	≤ 0.1 µM	**** (an EC1.5×≦0.3 μM is indicated by four stars (****))	**** (a fold increase between >1.5 and ≦1.65 is indicated by four stars (****))
Cc1cn2cc(-c3cc4ccc(N5C[C@H](C)N(C)C[C@H]5C)nc4oc3=O)nc2c(C)n1 [Cpd 123, 3-(6,8-dimethylimidazo[1,2-a]pyrazin-2-yl)-7-[(2R,5S)-2,4,5-trimethylpiperazin-1-yl]-2H-pyran[2,3-b]pyridin-2-one]	234 to 236 °C	0.1 to 0.3 µM	*** (an EC1.5× between >0.3 μM and ≦1 μM is indicated by three stars (***))	**** (a fold increase between >1.5 and ≦1.65 is indicated by four stars (****))
Cc1ccc2nc(-c3cc4ccc(N5C[C@@H]6C[C@H]5CN6C)nc4oc3=O)cn2c1 [Cpd 125, 7-[(1S,4S)-5-methyl-2,5-diazabicyclo[2.2.1]hept-2-yl]-3-(6-methylimidazo[1,2-a]pyridin-2-yl)-2H-pyrano[2,3-b]pyridin-2-one]	211 to 213 °C	0.1 to 0.3 µM	**** (an EC1.5×≦0.3 μM is indicated by four stars (****))	***** (a fold increase >1.65 is indicated by five stars (*****))
CCN1CCCN(c2ccc3cc(-c4cn5cccnc5n4)c(=O)oc3n2)CC1 [Cpd 126, 7-(4-ethyl-1,4-diazepan-1-yl)-3-(imidazo[1,2-a]pyrimidin-2-yl)-2H-pyrano[2,3-b]pyridin-2-one]	271 to 273 °C	0.1 to 0.3 µM		*** (a fold increase between >1.35 and ≦1.5 is indicated by three stars (***))
CCN1CCCN(c2ccc3cc(-c4cn5ccccc5n4)c(=O)oc3n2)CC1 [Cpd 127, 7-(4-ethyl-1,4-diazepan-1-yl)-3-(imidazo[1,2-a]pyridin-2-yl)-2H-pyrano[2,3-b]pyridin-2-one]	285 to 288 °C	≤ 0.1 µM	*** (an EC1.5× between >0.3 μM and ≦1 μM is indicated by three stars (***))	**** (a fold increase between >1.5 and ≦1.65 is indicated by four stars (****))
CCN1CCCN(c2ccc3cc(-c4cn5cc(C)nc(C)c5n4)c(=O)oc3n2)CC1 [Cpd 128, 3-(6,8-dimethylimidazo[1,2-a]pyrazin-2-yl)-7-(4-ethyl-1,4-diazepan-1-yl)-2H-pyrano[2,3-b]pyridin-2-one]	289 to 291 °C	≤ 0.1 µM	**** (an EC1.5×≦0.3 μM is indicated by four stars (****))	***** (a fold increase >1.65 is indicated by five stars (*****))
CCN1[C@H](C)CN(c2ccc3cc(-c4cn5ccccc5n4)c(=O)oc3n2)C[C@@H]1C [Cpd 129, 7-[(3R,5S)-4-ethyl-3,5-dimethylpiperazin-1-yl]-3-(imidazo[1,2-a]pyridin-2-yl)-2H-pyrano[2,3-b]pyridin-2-one]	281 to 284 °C	≤ 0.1 µM	**** (an EC1.5×≦0.3 μM is indicated by four stars (****))	***** (a fold increase >1.65 is indicated by five stars (*****))

Continued, in another order:

melting point	Compound	EC (1.5-fold) [1]	EC1.5x for Smn protein expression (Smn protein)	maximum fold (Fold) increase of Smn protein (Smn protein)
266 to 269 °C	CN1CCN(c2ccc3cc(-c4cn5cccnc5n4)c(=O)oc3n2)CC1 [Cpd 117, 3-(imidazo[1,2-a]pyrimidin-2-yl)-7-(4-methylpiperazin-1-yl)-2H-pyrano[2,3-b]pyridin-2-one]	0.1 to 0.3 µM	*** (an EC1.5× between >0.3 μM and ≦1 μM is indicated by three stars (***))	**** (a fold increase between >1.5 and ≦1.65 is indicated by four stars (****))
286 to 289 °C	C[C@@H]1CN(c2ccc3cc(-c4cn5cccnc5n4)c(=O)oc3n2)C[C@H](C)N1C [Cpd 118, 3-(imidazo[1,2-a]pyrimidin-2-yl)-7-[(3R,5S)-3,4,5-trimethylpiperazin-1-yl]-2H-pyrano[2,3-b]pyridin-2-one]	0.1 to 0.3 µM	** (an EC1.5× between >1 and ≦3 μM is indicated by two stars (**))	*** (a fold increase between >1.35 and ≦1.5 is indicated by three stars (***))
242 to 245 °C	C[C@@H]1CN(c2ccc3cc(-c4cn5cccc(F)c5n4)c(=O)oc3n2)C[C@H](C)N1C [Cpd 119, 3-(8-fluoroimidazo[1,2-a]pyridin-2-yl)-7-[(3R,5 S)-3,4,5-trimethylpiperazin-1-yl]-2H-pyrano[2,3-b]pyridin-2-one]	≤ 0.1 µM	**** (an EC1.5×≦0.3 μM is indicated by four stars (****))	**** (a fold increase between >1.5 and ≦1.65 is indicated by four stars (****))
241 to 245 °C	C[C@@H]1CN(c2ccc3cc(-c4cn5cccc(Cl)c5n4)c(=O)oc3n2)C[C@H](C)N1C [Cpd 120, 3-(8-chloroimidazo[1,2-a]pyridin-2-yl)-7-[(3R,5S)-3,4,5-trimethylpiperazin-1-yl]-2H-pyrano[2,3-b]pyridin-2-one]	≤ 0.1 µM		*** (a fold increase between >1.35 and ≦1.5 is indicated by three stars (***))
242 to 246 °C	C[C@@H]1CN(c2ccc3cc(-c4cn5ccccc5n4)c(=O)oc3n2)C[C@H](C)N1C [Cpd 121, 3-(imidazo[1,2-a]pyridin-2-yl)-7-[(3R,5S)-3,4,5-trimethylpiperazin-1-yl]-2H-pyrano[2,3-b]pyridin-2-one]	≤ 0.1 µM	* (An EC1.5× for Smn protein expression between >3 μM and ≦10 μM is indicated by one star (*))	*** (a fold increase between >1.35 and ≦1.5 is indicated by three stars (***))
